Where a SMILES comes first, the peptide text is derived from it. [ ]: non-standard residue; d: D form. The star is where a group is joined. Bip = N[C@@H](Cc1ccc(-c2ccccc2)cc1)C(=O)O; Pip = O=C(O)[C@@H]1CCCCN1; NMeA = CN[C@@H](C)C(=O)O; Nle = CCCC[C@H](N)C(=O)O; Orn = NCCC[C@H](N)C(=O)O; Abu = CC[C@H](N)C(=O)O; Cbz = O=C(OCc1ccccc1)*; Boc = CC(C)(C)OC(=O)*; Aib = CC(C)(N)C(=O)O; Sar = CNCC(=O)O
Molecular target: T1, Solute carrier family 15 member 1 (Homo sapiens, UniProt P46059)
T1 sequence (P46059 whole entry): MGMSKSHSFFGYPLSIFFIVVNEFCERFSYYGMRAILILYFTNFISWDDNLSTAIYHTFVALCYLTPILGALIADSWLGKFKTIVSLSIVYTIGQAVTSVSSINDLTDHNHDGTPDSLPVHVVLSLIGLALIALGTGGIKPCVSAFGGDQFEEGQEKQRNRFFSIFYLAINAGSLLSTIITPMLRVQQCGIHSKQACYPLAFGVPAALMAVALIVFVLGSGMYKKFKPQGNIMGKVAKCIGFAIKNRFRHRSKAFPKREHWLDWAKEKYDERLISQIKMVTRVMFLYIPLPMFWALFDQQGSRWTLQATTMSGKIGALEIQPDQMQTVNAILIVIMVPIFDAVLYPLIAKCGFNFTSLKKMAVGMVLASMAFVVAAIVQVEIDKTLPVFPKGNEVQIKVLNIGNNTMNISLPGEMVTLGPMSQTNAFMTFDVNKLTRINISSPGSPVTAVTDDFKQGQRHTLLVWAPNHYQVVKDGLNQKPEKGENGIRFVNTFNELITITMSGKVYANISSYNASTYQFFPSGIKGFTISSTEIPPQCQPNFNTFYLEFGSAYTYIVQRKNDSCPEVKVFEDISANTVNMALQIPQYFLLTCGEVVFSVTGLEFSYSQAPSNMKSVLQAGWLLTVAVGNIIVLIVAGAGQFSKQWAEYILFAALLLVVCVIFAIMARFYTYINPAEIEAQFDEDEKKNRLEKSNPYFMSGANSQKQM
Test: Inhibition constant (Ki) for human intestinal peptide carrier

Row | Ki [µM] | Structure (SMILES)
1 | 90 | CCCC[C@H](NC(=O)[C@H](C)N)C(=O)O (H-Ala-[Nle]-OH)
2 | 20000 | O=C(O)CC[C@H](NC(=O)[C@@H]1CCCN1)C(=O)O (H-Pro-Glu-OH)
3 | 5600 | C[C@H](NC(=O)[C@H](C)NC(=O)OCc1ccccc1)C(=O)O (Cbz-Ala-Ala-OH)
4 | 1800 | CN[C@@H](C)C(=O)N[C@@H](C)C(=O)O (H-[NMeA]-Ala-OH)
5 | > 30000 | CC(=O)N[C@@H](C)C(=O)N[C@@H](C)C(=O)O (Ac-Ala-Ala-OH)
6 | 980 | C[C@H](N)C(=O)N[C@@H](CCCN)C(=O)O (H-Ala-[Orn]-OH)
7 | 90 | CC(C)[C@H](N)C(=O)N[C@@H](C)C(=O)O (H-Val-Ala-OH)
8 | 1200 | CC(N)C(=O)NCCS(=O)(=O)O (configuration not stated)
9 | 790 | NCC(=O)CCC(=O)O [AMINOLEVULINIC ACID]
10 | 32000 | CNCC(=O)N(C)CC(=O)O
11 | 14000 | O=C(O)[C@H](CO)NC(=O)[C@@H]1CCCN1 (H-Pro-Ser-OH)
12 | 7300 | NCCC(=O)NCC(=O)O
13 | 1200 | C[C@H](N)C(=O)NC(C)(C)C(=O)O (H-Ala-[Aib]-OH)
14 | 4800 | CC(NC(=O)CCN)C(=O)O (configuration not stated)
15 | 1000 | NCC(=O)NCC(=O)O (H-Gly-Gly-OH)
16 | 250 | C[C@H](N)C(=O)N(C)CC(=O)O (H-Ala-[Sar]-OH)
17 | 1000 | NCC(=O)N[C@@H](Cc1c[nH]cn1)C(=O)O (H-Gly-His-OH)
18 | 330 | C[C@H](N)C(=O)N[C@@H](Cc1c[nH]cn1)C(=O)O (H-Ala-His-OH)
19 | 22000 | O=C(O)CNC(=O)[C@@H]1CCCN1 (H-Pro-Gly-OH)

Row | Ki [µM] | Structure (SMILES)
20 | 200 | N[C@@H](CS)C(=O)NCC(=O)O
21 | 320 | C[C@H](NC(=O)[C@@H](N)CC(=O)O)C(=O)O (H-Asp-Ala-OH)
22 | 2800 | CC(N)C(=O)Nc1ccccc1C(=O)O (configuration not stated)
23 | 310 | CC(N)C(=O)Nc1cccc(C(=O)O)c1 (configuration not stated)
24 | 250 | C[C@H](NC(=O)[C@@H](N)CCC(=O)O)C(=O)O (H-Glu-Ala-OH)
25 | 8300 | C[C@@H](NC(=O)[C@@H](N)CC(=O)O)C(=O)OCc1ccccc1
26 | 17400 | NCCCCC(=O)O [5-AMINOVALERIC ACID]
27 | 210 | CN(CC(=O)O)C(=O)[C@@H](N)Cc1ccccc1
28 | 130 | N[C@@H](CO)C(=O)N1CCC[C@H]1C(=O)O (H-Ser-Pro-OH)
29 | 120 | CC(N)C(=O)NC(C)C(=O)O (configuration not stated)
30 | > 30000 | NCCC(=O)NCCC(=O)O
31 | 2700 | CC(N)C(=O)NCCC(=O)O (configuration not stated)
32 | 260 | C[C@H](N)C(=O)N[C@@H](CC(=O)O)C(=O)O (H-Ala-Asp-OH)
33 | 400 | CC(C)CC(NC(=O)C(O)C(N)Cc1ccccc1)C(=O)O (configuration not stated)
34 | 140 | C[C@H](N)C(=O)NCC(=O)O (H-Ala-Gly-OH)
35 | 160 | C[C@H](NC(=O)[C@@H](N)Cc1cc2ccccc2[nH]1)C(=O)O
36 | 140 | C[C@H](N)C(=O)N[C@@H](CO)C(=O)O (H-Ala-Ser-OH)
37 | 480 | C[C@H](NC(=O)[C@@H](N)Cc1c[nH]cn1)C(=O)O (H-His-Ala-OH)
38 | 320 | C[C@H](N)C(=O)N[C@@H](CCC(=O)O)C(=O)O (H-Ala-Glu-OH)

Row | Ki [µM] | Structure (SMILES)
39 | 160 | CC(C)C[C@H](NC(=O)CN)C(=O)O
40 | 830 | CN(CC(=O)O)C(=O)CN [GLYCYLSARCOSINE] (H-Gly-[Sar]-OH)
41 | 120 | CC(C)C[C@H](N)C(=O)N[C@@H](C)C(=O)O [LEU-ALA] (H-Leu-Ala-OH)
42 | 380 | CC(NC(=O)CN)C(=O)O (configuration not stated)
43 | 70 | CC[C@H](NC(=O)[C@H](C)N)C(=O)O (H-Ala-[Abu]-OH)
44 | 2000 | C[C@H](NC(=O)[C@@H](C)N)C(=O)O (H-[dA]-Ala-OH)
45 | 410 | N[C@@H](CC(=O)O)C(=O)N[C@@H](CC(=O)O)C(=O)O (H-Asp-Asp-OH)
46 | 4200 | C[C@H](N)C(=O)N[C@H](C)C(=O)O (H-Ala-[dA]-OH)
47 | 140 | C[C@H](NC(=O)[C@@H](N)CO)C(=O)O (H-Ser-Ala-OH)
48 | 1600 | CNCC(=O)N1CCC[C@H]1C(=O)O (H-[Sar]-Pro-OH)
49 | 90 | C[C@H](NC(=O)[C@@H](N)Cc1ccc(O)cc1)C(=O)O
50 | 140 | CCCC[C@H](N)C(=O)N[C@@H](C)C(=O)O (H-[Nle]-Ala-OH)
51 | 140 | N[C@@H](CCC(=O)O)C(=O)N1CCC[C@H]1C(=O)O (H-Glu-Pro-OH)
52 | 350 | NCC(=O)N[C@@H](CC(=O)O)C(=O)O (H-Gly-Asp-OH)
53 | 5400 | C[C@H](NC(=O)[C@@H](N)CC(=O)O)C(N)=O (H-Asp-Ala-NH2)
54 | 160 | CCCC[C@H](N)C(=O)N1CCC[C@H]1C(=O)O (H-[Nle]-Pro-OH)
55 | > 30000 | C[C@@H](N)C(=O)N[C@H](C)C(=O)O (H-[dA]-[dA]-OH)
56 | 300 | NCC(=O)N1CCC[C@H]1C(=O)O [GLYCYL PROLINE] (H-Gly-Pro-OH)

More lines, now with the values behind:

Row | Structure (SMILES) | Ki [µM]
57 | C[C@H](NC(=O)[C@H](C)NC(=O)OC(C)(C)C)C(=O)O (Boc-Ala-Ala-OH) | > 30000
58 | COC(=O)c1ccccc1NC(=O)C(C)N (configuration not stated) | 890
59 | C[C@H](N)C(=O)N[C@@H](Cc1ccc(O)cc1)C(=O)O (H-Ala-Tyr-OH) | 150
60 | Cc1ccc(NC(=O)C(C)N)cc1 (configuration not stated) | 340
61 | C[C@@H](N)C(=O)N1CCC[C@@H]1C(=O)O | > 30000
62 | CC(N)C(=O)NCc1ccccc1 (configuration not stated) | 14100
63 | CC(NC(=O)[C@H](N)Cc1ccc(OCc2ccccc2)cc1)C(=O)O (some centres not stated) | 1400
64 | Cc1cccc(NC(=O)C(C)N)c1 (configuration not stated) | 410
65 | CC(N)C(=O)Nc1c(F)c(F)c(F)c(F)c1F (configuration not stated) | 3100
66 | COC(=O)c1ccc(NC(=O)C(C)N)cc1 (configuration not stated) | 1100
67 | O=C(O)[C@H](Cc1ccc(O)cc1)NC(=O)[C@@H]1CCCN1 (H-Pro-Tyr-OH) | 730
68 | CC(N)C(=O)Nc1ccc(Cl)cc1 (configuration not stated) | 330
69 | CC1NC(=O)C(CCCCN)NC1=O (configuration not stated) | 5400
70 | CC(N)C(=O)Nc1cccc(Cl)c1 (configuration not stated) | 460
71 | CC(N)C(=O)N1CCSC1 (configuration not stated) | 11000
72 | CC(N)C(=O)Nc1ccc(C(=O)O)cc1 (configuration not stated) | 9100
73 | CC(C)[C@H](N)C(=O)N1CCC[C@H]1C(=O)O (H-Val-Pro-OH) | 60
74 | N[C@@H](Cc1ccc(O)cc1)C(=O)N1CCC[C@H]1C(=O)O (H-Tyr-Pro-OH) | 160
75 | O=C(O)[C@H](Cc1ccccc1)NC(=O)[C@@H]1CCCN1 (H-Pro-Phe-OH) | 1900
76 | CC(C)[C@H](N)C(=O)N[C@@H](Cc1ccc(O)cc1)C(=O)O (H-Val-Tyr-OH) | 100
77 | C[C@@H](N)C(=O)N1CCC[C@H]1C(=O)O (stereo in doubt; 69) | 15100
78 | CC(N)C(=O)N1CCCCC1 (configuration not stated) | 12900
79 | CCC(C)C(N)C(=O)N1CCSC1 (configuration not stated) | 6300

Row | Structure (SMILES) | Ki [µM]
80 | COC(=O)c1cccc(NC(=O)C(C)N)c1 (configuration not stated) | 6900
81 | N[C@@H](Cc1ccc(O)cc1)C(=O)N[C@@H](Cc1ccccc1)C(=O)O (H-Tyr-Phe-OH) | 90
82 | CCC(C)C(N)C(=O)N1CCCCC1 (configuration not stated) | 5620
83 | C[C@H](N)C(=O)N1CCC[C@H]1C(=O)O | 150
84 | CC(NC(=O)C(N)Cc1ccc(OCc2ccccc2)cc1)C(=O)O (configuration not stated) | 10
85 | C[C@H](NC(=O)[C@@H](N)Cc1ccc(-c2ccccc2)cc1)C(=O)O (H-[Bip]-Ala-OH) | 20
86 | C[C@H](N)C(=O)N[C@@H](Cc1ccc(Cc2ccccc2)cc1)C(=O)O | 120
87 | CC(C)C[C@H](N)C(=O)N1CCC[C@H]1C(=O)O (H-Leu-Pro-OH) | 110
88 | C[C@H](N)C(=O)N1CCCC[C@H]1C(=O)O (H-Ala-[Pip]-OH) | 60
89 | CC1NC(=O)C(CCCN)NC1=O (configuration not stated) | 2300
90 | CC(N)C(=O)Nc1cccc(-c2ccccc2)c1 (configuration not stated) | 290
91 | CC(N)C(=S)N1CCCC1C(=O)O (configuration not stated) | 330
92 | N[C@@H](Cc1ccccc1)C(=O)N[C@@H](Cc1ccccc1)C(=O)O (H-Phe-Phe-OH) | 110
93 | C[C@H](NC(=O)[C@@H](N)Cc1ccc(Cc2ccccc2)cc1)C(=O)O | 20
94 | CC(C)C[C@H](NC(=O)[C@@H]1CCCN1)C(=O)O (H-Pro-Leu-OH) | 470
95 | C[C@H](NC(=O)[C@@H]1CCCN1)C(=O)O (H-Pro-Ala-OH) | 9500
96 | C[C@@H](N)C(=O)N1CCC[C@H]1C(=O)O (stereo in doubt; 56) | 4900
97 | CC(N)C(=O)Nc1ccccc1 (configuration not stated) | 2900
98 | CC(N)C(=O)Nc1ccccc1Cl (configuration not stated) | 7800
99 | CC(N)C(=O)Nc1ccccc1-c1ccccc1 (configuration not stated) | 16600
100 | CC(N)C(=O)NC1CCCCC1 (configuration not stated) | 1500
101 | N[C@@H](Cc1cc2ccccc2[nH]1)C(=O)N1CCC[C@H]1C(=O)O | 130
102 | N[C@@H](Cc1ccccc1)C(=O)N1CCC[C@H]1C(=O)O (H-Phe-Pro-OH) | 130

— ChEMBL document CHEMBL1145942, “Three-dimensional quantitative structure-activity relationship analyses of peptide substrates of the mammalian H+/peptide cotransporter PEPT1” (J Med Chem, 2003)
